Converted amounts (≈) assume the structure as drawn. Counter-ions that a name gives are not always drawn. Like-named read-outs stand apart in the source and are kept apart here.
Tests used:
[1] = tested on: HIV (HTLV-IIIB strain); test: microbe, parasite or virus in culture; format: cell-based; details: Human immunodeficiency virus 1, IIIB, MT4, 120 h
Method: The anti-HIV activity of each of the compounds produced in Examples was assayed by the following procedures. […] On the other hand, the test compound was diluted with the above culture medium to predetermined concentrations and distributed in 50 μl aliquots into a 96-well microtiter plate. Then, d suspension of MT-4 cells was added in 100 μl aliquots (3.5×10^4 cells per well) and then the above HIV-containing supernatant diluted with the above culture medium was added, 50 μl (60 pfu (plaque forming units)) per well. (2) The plate was incubated in a CO2 incubator at 37° C. for 5 days. Then, 30 μl/well of 3-(4,5-dimethyl thiazol-2-yl)-2,5-diphenyltetrazolium bromide (MTT) (5 mg/ml PBS) was added and the incubation was further continued for 1 hour. The surviving cells reducing MTT yield precipitation of formazan. Therefore, 150 μl portions of the culture supernatant were removed from all wells and, instead, 150 μl of a solution (10% Triton X-100 and 0.4% (v/v) HCl-added isopropyl alcohol) was added. The plate was shaken on a plate mixer to dissolve the formazan.

[2] = cytotoxicity in MT-4 cells (MTT, culture medium in place of HIV); format: cell-based; details: human
Method: The anti-HIV activity of each of the compounds produced in Examples was assayed by the following procedures. (1) Human T cell line MOLT-4 clone 8 persistently infected by HIV (HTLV-IIIB strain) was cultured in an RPMI-1640 medium supplemented with 10% fetal calf serum, the culture supernatant was filtered, and the titer of virus was determined; the culture supernatant was stored at -80° C. On the other hand, the test compound was diluted with the above culture medium to predetermined concentrations and distributed in 50 μl aliquots into a 96-well microtiter plate. Then, d suspension of MT-4 cells was added in 100 μl aliquots (3.5×10^4 cells per well) and then the above HIV-containing supernatant diluted with the above culture medium was added, 50 μl (60 pfu (plaque forming units)) per well. (2) The plate was incubated in a CO2 incubator at 37° C. for 5 days. Then, 30 μl/well of 3-(4,5-dimethyl thiazol-2-yl)-2,5-diphenyltetrazolium bromide (MTT) (5 mg/ml PBS) was added and the incubation was further continued for 1 hour. The surviving cells reducing MTT yield precipitation of formazan. Therefore, 150 μl portions of the culture supernatant were removed from all wells and, instead, 150 μl of a solution (10% Triton X-100 and 0.4% (v/v) HCl-added isopropyl alcohol) was added. The plate was shaken on a plate mixer to dissolve the formazan. The OD of formazan was measured with a microreader at 560 nm arid 690 nm (reference wavelength) and the result was compared with that of control.
The cytotoxicity of each of the compounds produced in Examples was assayed. In place of the HIV-containing supernatant (the virus suspension) in (1) in Test Example 1, 50 μl of the culture medium was added to each well, and the cytotoxicity was determined in the same manner as that for (2) in Test Example 1.

[3] = target: T1, purified recombinant HIV-1 reverse transcriptase (Human immunodeficiency virus type 1 group M subtype B, UniProt P04585); test: reverse transcriptase inhibition, poly(rA)/(dT) template primer, [3H]dTTP uptake; format: biochemical
T1 construct: purified recombinant HIV-1 reverse transcriptase; made in house; host or cells: Escherichia coli
Method: The reverse transcriptase activity of each of the compounds synthesized in Examples was assayed by the following procedures.
Using the purified recombinant HIV-1 reverse transcriptase RT, E.C. 2.7.7.49) obtained by expression in Escherichia Coli, a 96-well plate assay system was established for assaying a large number of samples. The RT inhibitory activity was determined as follows. To 11 μl of a solution of the test inhibitor in water or MSO was added 100 μl of a reaction mixture (0.1 unit/100 μl RT, 50 mM Tris-HCl pH 8.3, 150 mM KCl, 10 mM MgCl2, 3 mM dithiothreitol, 0.1% Nonidet P-40, 10 μg/ml. poly(rA) and 10 μg/ml (dT)12-1.8 as template and primer, and 4 μM dTTP, 1 μCi/100 μl [^3 H]dTTP as substrate) and the mixture was incubated at 37° C. for 1 hour and, then, immediately cooled on ice. Using a cell harvester, the reaction mixture was transferred to a DEAE-filter mat (LKB-Pharmacia). Then, using the wash line of the cell harvester, the cells were washed twice with 5% Na2 HPO4 /H2 O and once with water and dried at 95° C. for 15 minutes. […] The inhibitory activity was expressed in percent inhibition relative to the uptake on water or DMSO control.

[4] = MT-4 cells, 60 pfu HIV per well, 37° C., 5 days, MTT, Tables 1 and 2, read-out: EC50
[5] = MT-4 cells, no virus, 37° C., 5 days, MTT, Table 3, read-out: CC50

| Compound | CC50 at 120 h [2, 5] [µg/mL] | IC50 [3] [µM] | further results |
| --- | --- | --- | --- |
| CCCn1c(COC(N)=O)nc(C(C)C)c1Sc1cccc([N+](=O)[O-])c1 [Compound I-50, 2-carbamoyloxymethyl-4-isopropyl-5-(3-nitrophenylthio)-1-n-propyl-1H-imidazole] | > 100 |  | EC50 [1, 4]: 8 ng/mL (≈ 0.0211 µM) |
| CC(C)c1nc(CN)n(C)c1S(=O)(=O)c1cc(Cl)cc(Cl)c1 [Compound I-111, 2-aminomethyl-5-(3,5-dichlorophenylsulfonyl)-4-isopropyl-1-methyl-1H-imidazole] | 1 to 10 (≈ 2.76 to 27.6 µM) |  |  |
| CC(=O)NCc1nc(C(C)C)c(Sc2cc(Cl)cc(Cl)c2)n1C [Compound I-83] | 6.3 to 12.5 (≈ 16.9 to 33.6 µM) | 218 |  |
| CC(C)c1nc(CO)n(Cc2ccc(C(C)(C)C)cc2)c1Sc1cc(Cl)cc(Cl)c1 [Compound I-116, 1-(p-t-butylbenzyl)-5-(3,5-dichlorophenylthio)-2-hydroxymethyl-4-isopropyl-1H-imidazole hydrochloride] |  | > 200 | CC50 at 120 h ([2]; mt-4 cells): 25 µg/mL |
| CC(C)c1nc(COC(N)=O)n(C)c1[S+]([O-])c1cc(Cl)cc(Cl)c1 (stereo not drawn) [Compound I-115, 2-carbamoyloxymethyl-5-(3,5-dichlorophenylsulfinyl)-4-isopropyl-1-methyl-1H-imidazole] | 10 to 100 (≈ 25.6 to 256 µM) |  |  |
| CC(C)c1nc(CO)n(C)c1S(=O)(=O)c1cc(Cl)cc(Cl)c1 [Compound I-109, [5-(3,5-dichlorophenylsulfonyl)-4-isopropyl-1-methyl-1H-imidazol-2-yl]methanol] | > 100 |  | EC50 [1, 4]: 500 ng/mL (≈ 1.38 µM) |
| Cc1ccc(S(=O)(=O)NCc2nc(C(C)C)c(Sc3cc(Cl)cc(Cl)c3)n2C)cc1 [Compound I-88, 5-(3,5-dichlorophenylthio)-4-isopropyl-1-methyl-2-p-toluenesulfonylaminomethyl-1H-imidazole] | 1 to 10 (≈ 2.06 to 20.6 µM) | > 206 |  |
| CC(C)c1nc(COC(N)=O)n(Cc2ccncc2)c1Sc1cc(Cl)cc(Cl)c1 [I-93', 2-carbamoyloxymethyl-5-(3,5-dichlorophenylthio)-4-isopropyl-1-(pyridin-4-yl)methyl-1H-imidazole] | 10 to 100 (≈ 22.2 to 222 µM) |  | EC50 [1]: 0.06 to 0.13 ng/mL (≈ 0.000133 to 0.000288 µM) |
| CC(C)c1nc(COC(N)=O)n(Cc2ccccc2)c1Sc1cccc(Cl)c1 [Compound I-46, 1-benzyl-2-carbamoyloxymethyl-5-(3-chlorophenylthio)-4-isopropyl-1H-imidazole] | 12.5 to 25 (≈ 30.1 to 60.1 µM) | 1.92 |  |
| CC(C)c1nc(CN)n(CF)c1Sc1cc(Cl)cc(Cl)c1 [Compound I-77, 2-aminomethyl-5-(3,5-dichlorophenylthio)-1-fluoromethyl-4-isopropylimidazole] | 10 (≈ 28.7 µM) | 3.73 |  |
| CC(C)c1nc(CO)n(CC(=O)c2ccccc2)c1Sc1cc(Cl)cc(Cl)c1 [Compound I-31, [1-benzoylmethyl-5-(3,5-dichlorophenylthio)-4-isopropyl-1H-imidazol-2-yl]methanol] | 100 (≈ 230 µM) |  | EC50 [1, 4]: 60 ng/mL (≈ 0.138 µM) |
| [5-(3,5-dichlorophenylthio)-1-(1-fluoroethyl)-4-isopropyl-1H-imidazol-2-yl]methanol [Compound I-35] |  |  | RT IC50 ([3]; pH 8.3, 37° C., 1 hour, Tables 5 and 6): 0.69 µg/mL |
| CC(C)c1nc(COC(N)=O)n(Cc2ccc[nH]c2=O)c1Sc1cc(Cl)cc(Cl)c1 [Compound I-132, 2-carbamoyloxymethyl-5-(3,5-dichlorophenylthio)-1-(2-oxo-1,2-dihydro-pyridin-3-yl)methyl-4-isopropyl-1H-imidazole] |  | 1.39 | CC50 at 120 h ([2]; mt-4 cells): 12.5 to 25 µg/mL (≈ 26.7 to 53.5 µM) |
| CC(C)c1nc(COC(N)=O)n(Cc2ccccn2)c1Sc1cc(Cl)cc(Cl)c1 [Compound I-93] | 12.5 (≈ 27.7 µM) |  | EC50 [1]: 0.5 to 1 ng/mL (≈ 0.00111 to 0.00222 µM) |
| CC(C)c1nc(CN)n(C)c1[S+]([O-])c1cc(Cl)cc(Cl)c1 (stereo not drawn) [Compound I-110, 2-aminomethyl-5-(3,5-dichlorophenylsulfinyl)-4-isopropyl-1-methyl-1H-imidazole] | 10 to 100 (≈ 28.9 to 289 µM) |  | EC50 [1, 4]: 10000 ng/mL (≈ 28.9 µM) |
| CC(C)c1nc(CO)n(Cc2cccc(N)c2)c1Sc1cc(Cl)cc(Cl)c1 [Compound I-118, 1-(m-aminobenzyl)-5-(3,5-dichlorophenylthio)-2-hydroxymethyl-4-isopropyl-1H-imidazole] |  | 2.13 | CC50 at 120 h ([2]; mt-4 cells): 12.5 to 25 µg/mL (≈ 29.6 to 59.2 µM) |
| Cc1cc(C)cc(S(=O)(=O)c2c(C(C)C)nc(CO)n2C)c1 [Compound I-107, [5-(3,5-dimethylphenylsulfonyl)-4-isopropyl-1-methyl-1H-imidazol-2-yl]methanol] | > 100 | 194 |  |
| CC(C)c1nc(CCOC(N)=O)n(Cc2ccccc2N)c1Sc1cc(Cl)cc(Cl)c1 [Compound I-144, l-(o-aminobenzyl)-2-(2-carbamoyloxyethyl)-5-(3,5-dichlorophenylthio)-4-isopropyl-1H-imidazole] |  | > 209 | CC50 at 120 h ([2]; mt-4 cells): 6.3 to 12.5 µg/mL (≈ 13.1 to 26.1 µM) |
| CC(C)c1nc(CO)n(C)c1[S+]([O-])c1cc(Cl)cc(Cl)c1 (stereo not drawn) [Compound I-108, [5-(3,5-dichlorophenylsulfinyl)-4-isopropyl-1-methyl-1H-imidazol-2yl]methanol] | 10 to 100 (≈ 28.8 to 288 µM) |  | EC50 [1, 4]: 1000 ng/mL (≈ 2.88 µM) |
| CC(C)c1c(Sc2cc(Cl)cc(Cl)c2)nc(COCCOC(N)=O)n1C [Compound I-65] | 12.5 to 25 (≈ 29.9 to 59.8 µM) | > 239 |  |
| CC(=O)OCCOCc1nc(Sc2cc(Cl)cc(Cl)c2)c(C(C)C)n1C [Compound I-64, 2-[4-(3,5-dichlorophenylthio)-5-isopropyl-1-methyl-1H-imidazol-2-yl]methoxy} ethyl acetate] | 12.5 to 25 | > 240 |  |
| CCCCCCCCCCCCn1c(CO)nc(C(C)C)c1Sc1cc(Cl)cc(Cl)c1 [Compound I-18, [5-(3,5-dichlorophenylthio)-1-dodecyl-4-isopropyl-1H-imidazol-2-yl]methanol] | 10 to 100 (≈ 20.6 to 206 µM) | > 206 |  |
| CC(C)c1nc(CO)[nH]c1S(=O)(=O)c1cc(Cl)cc(Cl)c1 [Compound I-114, [5-(3,5-dichlorophenylsulfonyl)-4-isopropyl-1H-imidazol-2-yl]methanol] | 10 to 100 (≈ 28.6 to 286 µM) |  | EC50 [1, 4]: 10000 ng/mL (≈ 28.6 µM) |
| CC(=O)Nc1ccc(Cn2c(CO)nc(C(C)C)c2Sc2cc(Cl)cc(Cl)c2)cc1 [Compound I-117, 1-(p-N-acetylaminobenzyl)-5-(3,5-dichlorophenylthio)-2-hydroxymethyl-4-isopropyl-1H-imidazole] |  | 8.18 | CC50 at 120 h ([2]; mt-4 cells): 50 µg/mL (≈ 108 µM) |
| CC(C)c1nc(CNC(=O)C(F)(F)F)n(C)c1[S+]([O-])c1cc(Cl)cc(Cl)c1 (stereo not drawn) [Compound I-112, 5-(3,5-dichlorophenylsulfinyl)-4-isopropyl-1-methyl-2-trifluoroacetylaminomethyl-1H-imidazole] | > 100 |  | EC50 [1, 4]: > 100000 ng/mL |
| CCn1c(COC(N)=O)nc(C(C)C)c1Sc1cccc([N+](=O)[O-])c1 [Compound I-49, 2-carbamoyloxymethyl-1-ethyl-4-isopropyl-5-(3-nitrophenylthio)-1H-imidazole] | 25 (≈ 68.6 µM) |  | EC50 [1]: 4 to 8 ng/mL (≈ 0.011 to 0.022 µM) |
| CC(C)c1nc(CO)[nH]c1[S+]([O-])c1cc(Cl)cc(Cl)c1 (stereo not drawn) [Compound I-113, [5-(3,5-dichlorophenylsulfinyl)-4-isopropyl-1H-imidazol-2-yl]methanol] | 100 (≈ 300 µM) |  | EC50 [1, 4]: 100000 ng/mL (≈ 300 µM) |
